This note sets out measurements from patent US9931327B2, “Derivatives of 1-phenyl-2-pyridinyl alkyl alcohols as phosphodiesterase inhibitors” (Chiesi Farmaceutici S.p.A., priority 2011, dated 2018).

For this assay, the system named is LPS-induced TNF-α release in peripheral blood mononuclear cells (PBMCs). Nature of the assay: In vitro determination of PDE4 inhibitory activity in the PBMCs assay (LPS-induced TNF-α release). Particulars: PBMC, human PBMCs, LPS 3 ng/ml, 18 hours, read-out: PDE4 inhibition (IC50, 50% inhibition of LPS-induced TNF-α release). It is filed as cell-based, human. An outline of the steps: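 Cryopreserved human PBMCs (10^5 cells/well) pre-incubated 30 min with compound (10^−12 to 10^−6 M or 10^−3 to 10^−7 M), then stimulated with LPS 3 ng/ml for 18 h at 37 °C. TNF-α in medium by ELISA; IC50 as mean ± 95% confidence limits.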

Structures can show the parent of a compound that is named as a salt. Where two headings read alike, the source gives them in different places. Some results are limits rather than exact numbers.

Broadly, the IC50 is the concentration that gives 50% inhibition.

Turning to `CS(=O)(=O)c1ccc(S(=O)(=O)N2CCSC2C(=O)O[C@@H](Cc2c(Cl)c[n+]([O-])cc2Cl)c2ccc(OC(F)F)c(OCC3CC3)c2)cc1` (stereo partly drawn) [Compound 92, 3,5-dichloro-4-((2S)-2-(3-(cyclopropylmethoxy)-4-(difluoromethoxy)phenyl)-2-(3-(4-(methylsulfonyl)phenylsulfonyl)thiazolidine-2-carbonyloxy)ethyl)pyridine 1-oxide], under “TNF-α by ELISA”, the IC50 was less than 0.1 nM.
Still for that read-out and setting: as for `COc1cccc(S(=O)(=O)N2CCS[C@H]2C(=O)O[C@@H](Cc2c(Cl)c[n+]([O-])cc2Cl)c2ccc(OC(F)F)c(OCC3CC3)c2)c1` [Compound 103, 3,5-dichloro-4-((S)-2-(3-(cyclopropylmethoxy)-4-(difluoromethoxy)phenyl)-2-((S)-3-(3-methoxyphenylsulfonyl)thiazolidine-2-carbonyloxy)ethyl)pyridine 1-oxide], the figure is 0.1 to 1 nM.
The same measure, in the same setting: as for `CN(C)C(=O)c1cccc(S(=O)(=O)N2CCC[C@@H]2C(=O)O[C@@H](Cc2c(Cl)c[n+]([O-])cc2Cl)c2ccc(OC(F)F)c(OCC3CC3)c2)c1` [Compound 55, 3,5-dichloro-4-((S)-2-(3-(cyclopropylmethoxy)-4-(difluoromethoxy)phenyl)-2-((R)-1-(3-(dimethylcarbamoyl)phenylsulfonyl)pyrrolidine-2-carbonyloxy)ethyl)pyridine 1-oxide], the figure is 0.1 to 1 nM; as for `CNS(=O)(=O)c1cccc(S(=O)(=O)N2CCSC2C(=O)O[C@@H](Cc2c(Cl)c[n+]([O-])cc2Cl)c2ccc(OC(F)F)c(OCC3CC3)c2)c1` (stereo partly drawn) [Compound 118, 3,5-dichloro-4-((2S)-2-(3-(cyclopropylmethoxy)-4-(difluoromethoxy)phenyl)-2-(3-(3-(N-methylsulfamoyl)phenylsulfonyl)thiazolidine-2-carbonyloxy)ethyl)pyridine 1-oxide], less than 0.1 nM; as for `O=C(O[C@@H](Cc1c(Cl)c[n+]([O-])cc1Cl)c1ccc(OC(F)F)c(OCC2CC2)c1)C1SCCN1S(=O)(=O)c1ccc(N2CCOCC2)nc1` (stereo partly drawn) [Compound 74, 3,5-dichloro-4-((2S)-2-(3-(cyclopropylmethoxy)-4-(difluoromethoxy)phenyl)-2-(3-(6-morpholinopyridin-3-ylsulfonyl)thiazolidine-2-carbonyloxy)ethyl)pyridine 1-oxide], less than 0.1 nM.
Take `Cc1nc(C)c(S(=O)(=O)N2CCS[C@H]2C(=O)O[C@@H](Cc2c(Cl)c[n+]([O-])cc2Cl)c2ccc(OC(F)F)c(OCC3CC3)c2)s1` [Compound 107, 3,5-dichloro-4-((S)-2-(3-(cyclopropylmethoxy)-4-(difluoromethoxy)phenyl)-2-((S)-3-(2,4-dimethylthiazol-5-ylsulfonyl)thiazolidine-2-carbonyloxy)ethyl)pyridine 1-oxide]: where the note is “TNF-α by ELISA”, the IC50 was less than 0.1 nM.
As for `O=C(O[C@@H](Cc1c(Cl)c[n+]([O-])cc1Cl)c1ccc(OC(F)F)c(OCC2CC2)c1)[C@H]1NCCS1` [Compound 6, 3,5-dichloro-4-((S)-2-(3-(cyclopropylmethoxy)-4-(difluoromethoxy)phenyl)-2-((S)-thiazolidine-2-carbonyloxy)ethyl)pyridine 1-oxide hydrochloride], the IC50 (compounds of formula (II)) was 0.1 to 1 nM.
Consider `COc1ccc(S(=O)(=O)N2CCSC2C(=O)O[C@@H](Cc2c(Cl)c[n+]([O-])cc2Cl)c2ccc(OC(F)F)c(OCC3CC3)c2)cc1C(=O)N1CCOCC1` (stereo partly drawn) [Compound 128, 3,5-dichloro-4-((2S)-2-(3-(cyclopropylmethoxy)-4-(difluoromethoxy)phenyl)-2-(3-(4-methoxy-3-(morpholine-4-carbonyl)phenylsulfonyl)thiazolidine-2-carbonyloxy)ethyl)pyridine 1-oxide], for which the IC50 (TNF-α by ELISA) was less than 0.1 nM.
Still for that read-out and setting: as for `CN(C)C(=O)c1cccc(C(=O)N2CCS[C@H]2C(=O)O[C@@H](Cc2c(Cl)c[n+]([O-])cc2Cl)c2ccc(OC(F)F)c(OCC3CC3)c2)c1` [Compound 187, 3,5-dichloro-4-((S)-2-(3-(cyclopropylmethoxy)-4-(difluoromethoxy)phenyl)-2-((S)-3-(3-(dimethylcarbamoyl)benzoyl)thiazolidine-2-carbonyloxy)ethyl)pyridine 1-oxide], the figure is 0.1 to 1 nM; as for `COc1ccc(S(=O)(=O)N2CCCC[C@H]2C(=O)O[C@@H](Cc2c(Cl)c[n+]([O-])cc2Cl)c2ccc(OC(F)F)c(OCC3CC3)c2)cc1C(=O)N(C)C` [Compound 129, 3,5-dichloro-4-((S)-2-(3-(cyclopropylmethoxy)-4-(difluoromethoxy)phenyl)-2-((S)-1-(3-(dimethylcarbamoyl)-4-methoxyphenylsulfonyl)piperidine-2-carbonyloxy)ethyl)pyridine 1-oxide], less than 0.1 nM.
Same read-out and setting: as for `CN(C)C(=O)c1cccc(CC(=O)N2CCS[C@H]2C(=O)O[C@@H](Cc2c(Cl)c[n+]([O-])cc2Cl)c2ccc(OC(F)F)c(OCC3CC3)c2)c1` [Compound 198, 3,5-dichloro-4-((S)-2-(3-(cyclopropylmethoxy)-4-(difluoro-methoxy)phenyl)-2-((S)-3-(2-(3-(dimethylcarbamoyl)phenyl)acetyl)-thiazolidine-2-carbonyloxy)ethyl)pyridine 1-oxide], the figure is 0.1 to 1 nM; as for `O=C(O[C@@H](Cc1c(Cl)c[n+]([O-])cc1Cl)c1ccc(OC(F)F)c(OCC2CC2)c1)[C@@H]1SCCN1S(=O)(=O)c1ccco1` [Compound 95, 3,5-dichloro-4-((S)-2-(3-(cyclopropylmethoxy)-4-(difluoromethoxy)phenyl)-2-((S)-3-(furan-2-ylsulfonyl)thiazolidine-2-carbonyloxy)ethyl)pyridine 1-oxide], less than 0.1 nM.
The same measure, in the same setting: as for `N#Cc1ccc(S(=O)(=O)N2CCS[C@H]2C(=O)O[C@@H](Cc2c(Cl)c[n+]([O-])cc2Cl)c2ccc(OC(F)F)c(OCC3CC3)c2)cc1` [Compound 206, 3,5-dichloro-4-((S)-2-((S)-3-(4-cyanophenylsulfonyl)thiazolidine-2-carbonyloxy)-2-(3-(cyclopropylmethoxy)-4-(difluoromethoxy)phenyl)ethyl)pyridine 1-oxide], the figure is less than 0.1 nM; as for `O=C(O[C@@H](Cc1c(Cl)c[n+]([O-])cc1Cl)c1ccc(OC(F)F)c(OCC2CC2)c1)C1SCCN1S(=O)(=O)c1cccs1` (stereo partly drawn) [Compound 62, 3,5-dichloro-4-((2S)-2-(3-(cyclopropylmethoxy)-4-(difluoromethoxy)phenyl)-2-(3-(thiophen-2-ylsulfonyl)thiazolidine-2-carbonyloxy)ethyl)pyridine 1-oxide], 0.1 to 1 nM.
Turning to `NC(=O)c1ccc(C(=O)N2CCS[C@H]2C(=O)O[C@@H](Cc2c(Cl)c[n+]([O-])cc2Cl)c2ccc(OC(F)F)c(OCC3CC3)c2)cc1` [Compound 37, 4-((S)-2-((S)-3-(4-carbamoylbenzoyl)thiazolidine-2-carbonyloxy)-2-(3-(cyclopropylmethoxy)-4-(difluoromethoxy)phenyl)ethyl)-3,5-dichloropyridine 1-oxide], for the setting “TNF-α by ELISA”, the IC50 was less than 0.1 nM.
On the same count and under the same terms, as for `CN(C)C(=O)c1ccc(S(=O)(=O)N2CCSC2C(=O)O[C@@H](Cc2c(Cl)c[n+]([O-])cc2Cl)c2ccc(OC(F)F)c(OCC3CC3)c2)cc1` (stereo partly drawn) [Compound 125, 3,5-dichloro-4-((2S)-2-(3-(cyclopropylmethoxy)-4-(difluoromethoxy)phenyl)-2-(3-(4-(dimethylcarbamoyl)phenylsulfonyl)thiazolidine-2-carbonyloxy)ethyl)pyridine 1-oxide], the figure is 0.1 to 1 nM; as for `Cn1ccnc1S(=O)(=O)N1CCCC[C@H]1C(=O)O[C@@H](Cc1c(Cl)c[n+]([O-])cc1Cl)c1ccc(OC(F)F)c(OCC2CC2)c1` [Compound 116, 3,5-dichloro-4-((S)-2-(3-(cyclopropylmethoxy)-4-(difluoromethoxy)phenyl)-2-((S)-1-(1-methyl-1H-imidazol-2-ylsulfonyl)piperidine-2-carbonyloxy)ethyl)pyridine 1-oxide], less than 0.1 nM; as for `O=C(O)c1cccc(S(=O)(=O)N2CCSC2C(=O)O[C@@H](Cc2c(Cl)c[n+]([O-])cc2Cl)c2ccc(OC(F)F)c(OCC3CC3)c2)c1` (single isomer, unassigned) [Compound 75, 4-((S)-2-((S)-3-(3-carboxyphenylsulfonyl)thiazolidine-2-carbonyloxy)-2-(3-(cyclopropylmethoxy)-4-(difluoromethoxy)phenyl)ethyl)-3,5-dichloropyridine 1-oxide or 4-((S)-2-((R)-3-(3-carboxyphenylsulfonyl)thiazolidine-2-carbonyloxy)-2-(3-(cyclopropylmethoxy)-4-(difluoromethoxy)phenyl)ethyl)-3,5-dichloropyridine 1-oxide], 0.1 to 1 nM.
The same measure, in the same setting: as for `N#Cc1cc(S(=O)(=O)N2CCS[C@H]2C(=O)O[C@@H](Cc2c(Cl)c[n+]([O-])cc2Cl)c2ccc(OC(F)F)c(OCC3CC3)c2)ccc1F` [Compound 209, 3,5-dichloro-4-((S)-2-((S)-3-(3-cyano-4-fluorophenylsulfonyl)thiazolidine-2-carbonyloxy)-2-(3-(cyclopropylmethoxy)-4-(difluoromethoxy)phenyl)ethyl)pyridine 1-oxide], the figure is 0.1 to 1 nM; as for `O=C(O[C@@H](Cc1c(Cl)c[n+]([O-])cc1Cl)c1ccc(OC(F)F)c(OCC2CC2)c1)C1CN(S(=O)(=O)c2ccccc2)CCO1` (stereo partly drawn) [Compound 79, 3,5-dichloro-4-((2S)-2-(3-(cyclopropylmethoxy)-4-(difluoromethoxy)phenyl)-2-(4-(phenylsulfonyl)morpholine-2-carbonyloxy)ethyl)pyridine 1-oxide], 0.1 to 1 nM; as for `CN(C)Cc1ccc(C(=O)N2CCSC2C(=O)O[C@@H](Cc2c(Cl)c[n+]([O-])cc2Cl)c2ccc(OC(F)F)c(OCC3CC3)c2)s1` (stereo partly drawn) [Compound 51, 3,5-dichloro-4-((2S)-2-(3-(cyclopropylmethoxy)-4-(difluoromethoxy)phenyl)-2-(3-(5-((dimethylamino)methyl)thiophene-2-carbonyl)thiazolidine-2-carbonyloxy)ethyl)pyridine 1-oxide formate], 0.1 to 1 nM.
